Where two headings read alike, the source gives them in different places.
Experiments:
[1] = in vitro; conditions: human
[2] = tested on: SARS-CoV-2; assay: microbe, parasite or virus in culture; type: cell-based; conditions: Severe acute respiratory syndrome coronavirus 2, 72 h; Calu-3 cells, MOI~0.03, 3 days incubation, CPE by XTT; read-out: EC50 (anti-SARS-CoV-2 activity)
[3] = tested on: SARS-CoV-2; assay: microbe, parasite or virus in culture; type: cell-based; conditions: Severe acute respiratory syndrome coronavirus 2, Vero C1008, 72 h; VeroE6 cells, MOI~0.03, 3 days incubation, CPE by XTT; read-out: EC50 (anti-SARS-CoV-2 activity)
[4] = target: SARS-CoV-2 nsp14 7-N MTase (Severe acute respiratory syndrome coronavirus 2, UniProt P0DTD1); assay: biochemical; conditions: Echo MS assay, 20 nM nsp14, 4 μM SAM, 4 μM GpppA, duplicates
[5] = in vitro; conditions: African green monkey
[6] = Cytotoxicity (XTT) in Calu-3 cells; conditions: human
[7] = Cytotoxicity (XTT) in Vero E6 cells; conditions: African green monkey
[8] = in the same cell type; cited from earlier work

For `CCN(C[C@H]1O[C@@H](n2cnc3c(N)ncnc32)[C@H](O)[C@@H]1O)S(=O)(=O)c1ccc(OC)c(C#N)c1` [Compound 3a, reference compound], the CC50 at 3 days [1] was greater than 100 µM, the EC50 [2] was greater than 100 µM and the EC50 [3] was greater than 100 µM. For the same compound, the IC50 [4] was 0.195 ± 0.0253 µM and the CC50 at 3 days [5] was greater than 100 µM.
For `COc1ccc(S(=O)(=O)N(C)C[C@H]2O[C@@H](n3cnc4c(N)ncnc43)[C@H](O)[C@@H]2O)cc1C#N` [Compound 3b], the IC50 [4] was 0.128 ± 0.0144 µM.
`COc1ccc(S(=O)(=O)N(C[C@H]2O[C@@H](n3cnc4c(N)ncnc43)[C@H](O)[C@@H]2O)C(C)C)cc1C#N` [Compound 3c] showed an IC50 [4] of 0.624 ± 0.0891 µM.
With `COc1ccc(S(=O)(=O)N(C[C@H]2O[C@@H](n3cnc4c(N)ncnc43)[C@H](O)[C@@H]2O)C2CCCC2)cc1C#N` [Compound 3d] the IC50 [4] was 2.38 ± 0.278 µM.
`CCN(C[C@H]1O[C@@H](n2cc(C#Cc3ncc[nH]3)c3c(N)ncnc32)[C@H](O)[C@@H]1O)S(=O)(=O)c1ccc(OC)c(C#N)c1` [Compound 12b] showed a CC50 at 3 days [1] greater than 100 µM, an EC50 [2] greater than 100 µM and an EC50 [3] greater than 100 µM. For the same compound, the IC50 [4] was 0.034 ± 0.0049 µM and the CC50 at 3 days [5] was greater than 100 µM.
Compound `CCN(C[C@H]1O[C@@H](n2cc(C#Cc3ccccc3)c3c(N)ncnc32)[C@H](O)[C@@H]1O)S(=O)(=O)c1ccc(OC)c(C#N)c1` [Compound 12c] has a CC50 at 3 days [1] greater than 100 µM, an EC50 [2] greater than 100 µM and an EC50 [3] greater than 100 µM. For the same compound, the IC50 [4] was 0.062 ± 0.0124 µM and the CC50 at 3 days [5] was greater than 100 µM.
`CCN(C[C@H]1O[C@@H](n2cc(C#Cc3cccc4ccccc34)c3c(N)ncnc32)[C@H](O)[C@@H]1O)S(=O)(=O)c1ccc(OC)c(C#N)c1` [Compound 12d] showed a CC50 at 3 days [1] greater than 100 µM, an EC50 [2] greater than 100 µM and an EC50 [3] greater than 100 µM. It also gave an IC50 [4] of 0.261 ± 0.0516 µM and a CC50 at 3 days [5] greater than 100 µM.
Compound `CCN(C[C@H]1O[C@@H](n2cc(C#Cc3ccc(O)nc3)c3c(N)ncnc32)[C@H](O)[C@@H]1O)S(=O)(=O)c1ccc(OC)c(C#N)c1` [Compound 12f] has a CC50 at 3 days [1] greater than 100 µM, an EC50 [2] greater than 100 µM and an EC50 [3] greater than 100 µM. It also gave an IC50 [4] of 0.065 ± 0.0092 µM and a CC50 at 3 days [5] greater than 100 µM.
`CCN(C[C@H]1O[C@@H](n2cc(C#Cc3cnc(O)nc3)c3c(N)ncnc32)[C@H](O)[C@@H]1O)S(=O)(=O)c1ccc(OC)c(C#N)c1` [Compound 12g] showed a CC50 at 3 days [1] greater than 100 µM, an EC50 [2] greater than 100 µM and an EC50 [3] greater than 100 µM. The IC50 [4] was 0.075 ± 0.0083 µM and the CC50 at 3 days [5] was greater than 100 µM.
With `CCN(C[C@H]1O[C@@H](n2cc(C#Cc3cnc(N)nc3)c3c(N)ncnc32)[C@H](O)[C@@H]1O)S(=O)(=O)c1ccc(OC)c(C#N)c1` [Compound 12i] the CC50 at 3 days [1] was greater than 100 µM, the EC50 [2] was greater than 100 µM and the EC50 [3] was greater than 100 µM. For the same compound, the IC50 [4] was 0.038 ± 0.0042 µM and the CC50 at 3 days [5] was greater than 100 µM.
In the case of `CCN(C[C@H]1O[C@@H](n2cc(C#Cc3c[nH]c(=O)[nH]c3=O)c3c(N)ncnc32)[C@H](O)[C@@H]1O)S(=O)(=O)c1ccc(OC)c(C#N)c1` [Compound 12j], the CC50 at 3 days [1] is reported as greater than 100 µM, the EC50 [2] is reported as greater than 100 µM and the EC50 [3] is reported as greater than 100 µM. It also gave an IC50 [4] of 0.07 ± 0.0081 µM and a CC50 at 3 days [5] greater than 100 µM.
Work on `CCN(C[C@H]1O[C@@H](n2cc(C#Cc3c[nH]c(=O)nc3N)c3c(N)ncnc32)[C@H](O)[C@@H]1O)S(=O)(=O)c1ccc(OC)c(C#N)c1` [Compound 12k] yielded a CC50 at 3 days [1] greater than 100 µM, an EC50 [2] greater than 100 µM and an EC50 [3] greater than 100 µM. It also gave an IC50 [4] of 0.088 ± 0.0112 µM and a CC50 at 3 days [5] greater than 100 µM.
With `CCN(C[C@H]1O[C@@H](n2cc(C#Cc3cncnc3)c3c(N)ncnc32)[C@H](O)[C@@H]1O)S(=O)(=O)c1ccc(OC)c(C#N)c1` [Compound 12m] the CC50 at 3 days [1] was greater than 100 µM, the EC50 [2] was greater than 100 µM and the EC50 [3] was greater than 100 µM. For the same compound, the IC50 [4] was 0.051 ± 0.0062 µM and the CC50 at 3 days [5] was greater than 100 µM.
`CCN(C[C@H]1O[C@@H](n2cc(C#Cc3ccncc3)c3c(N)ncnc32)[C@H](O)[C@@H]1O)S(=O)(=O)c1ccc(OC)c(C#N)c1` [Compound 12n] gave a CC50 at 3 days [1] greater than 100 µM, an EC50 [2] greater than 100 µM and an EC50 [3] greater than 100 µM. It also gave an IC50 [4] of 0.041 ± 0.0071 µM and a CC50 at 3 days [5] greater than 100 µM.
For `CCN(C[C@H]1O[C@@H](n2cc(C#Cc3ccc(C(=O)O)cc3)c3c(N)ncnc32)[C@H](O)[C@@H]1O)S(=O)(=O)c1ccc(OC)c(C#N)c1` [Compound 12p], the CC50 at 3 days [1] was greater than 100 µM, the EC50 [2] was greater than 100 µM and the EC50 [3] was greater than 100 µM. It also gave an IC50 [4] of 0.084 ± 0.0094 µM and a CC50 at 3 days [5] greater than 100 µM.
`CCC(CC)COC(=O)[C@H](C)N[P@](=O)(OC[C@H]1O[C@@](C#N)(c2ccc3c(N)ncnn23)[C@H](O)[C@@H]1O)Oc1ccccc1` [Remdesivir, reference compound] gave an EC50 [2] of 0.26 µM, a CC50 at 3 days [6] greater than 50 µM and an EC50 [3] of 1.2 µM. The CC50 at 3 days [7] was greater than 50 µM.
Compound `Nc1ncnc2c1c(C#Cc1cnc3ccccc3c1)cn2[C@@H]1O[C@H](CSCC[C@H](N)C(=O)O)[C@@H](O)[C@H]1O` [TO507, reference compound] has a CC50 at 3 days [1] greater than 100 µM, an EC50 [2] greater than 100 µM and an EC50 [3] greater than 100 µM. It also gave an IC50 [4] of 0.068 ± 0.0121 µM and a CC50 at 3 days [5] greater than 100 µM.
In the case of `CC(C)OC(=O)[C@H](C)N[P@](=O)(CO[C@H](C)Cn1cnc2c(N)ncnc21)Oc1ccccc1` [tenofovir alafenamide], the “Reported intracellular uptake, free tenofovir” value [8] is listed as 67 µM and the “Reported intracellular uptake, prodrug” value [8] is listed as 0.9 µM.

— paper PMC10398685 (ACS Omega, 2023)
